The record followed here is paper PMC11217349, “Development of Nurr1 agonists from amodiaquine by scaffold hopping and fragment growing” (Communications Chemistry, 2024).

“And” between values parts separate entries of the source, which are not always exact repeats. Equal values may be shown once. “Also recorded” adds a separate entry of the source. Read-outs that look alike come from different tables or passages of the source.

Broadly, the EC50 is the concentration needed to bring the measured effect to its halfway point.

The target of series [1] is T1, human Nurr1 (hinge region and ligand binding domain) (Homo sapiens, UniProt P43354).
T1 construct: expressed in transfected cells; host or cells: HEK293T
T1 sequence (P43354 360-595 limits assumed): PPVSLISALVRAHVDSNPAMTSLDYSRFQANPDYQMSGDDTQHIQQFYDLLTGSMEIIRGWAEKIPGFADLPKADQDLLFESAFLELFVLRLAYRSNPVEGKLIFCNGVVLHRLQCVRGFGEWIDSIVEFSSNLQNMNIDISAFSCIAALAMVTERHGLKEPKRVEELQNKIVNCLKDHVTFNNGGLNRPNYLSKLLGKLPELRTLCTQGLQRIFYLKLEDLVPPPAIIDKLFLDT
Nature of the series: Gal4-Nurr1 hybrid reporter gene assay. The format is cell-based.

Series [2] has as its target T2, human full-length Nurr1 homodimer (NurRE) (Homo sapiens, UniProt P43354).
T2 construct: The full-length human nuclear receptor Nurr1 (pcDNA3.1-hNurr1-NE; Addgene plasmid #102363); host or cells: HEK293T
Briefly: Full-length Nurr1 reporter gene assay (NurRE). The format is cell-based. Particulars: full-length human Nurr1 homodimer, HEK293T. The text has this: Activation of full-length human Nurr1 was studied in transiently transfected HEK293T cells using the reporter plasmids pFR-Luc-NBRE[14], pFR-Luc-POMC[14] or pFR-Luc-DR5[14] each containing one copy of the respective human Nurr1 response element NBRE Nl3, NurRE, or DR5. The full-length human nuclear receptor Nurr1 (pcDNA3.1-hNurr1-NE; Addgene plasmid #102363) and, for DR5, RXRα (pSG5-hRXR)[57] were overexpressed. pRL-SV40 (Promega) was used for the normalization of transfection efficacy and to observe test compound toxicity. […] After 24 h, the medium was changed to Opti-MEM without supplements, and cells were transiently transfected using Lipofectamine LTX reagent (Invitrogen) according to the manufacturer’s protocol. Five hours after transfection, cells were incubated with the test compounds in Opti-MEM supplemented with penicillin (100 U/mL), streptomycin (100 μg/mL) and 0.1% DMSO for 16 h before luciferase activity was measured using the Dual-Glo Luciferase Assay System (Promega) according to the manufacturer’s protocol on a Tecan Spark luminometer (Tecan Deutschland GmbH). Firefly luminescence was divided by Renilla luminescence and multiplied by 1000 resulting in relative light units (RLU) to normalize for transfection efficiency and cell growth. Fold activation was obtained by dividing the mean RLU of the test compound by the mean RLU of the untreated control. All samples were tested in at least three biologically independent experiments in duplicates. For dose-response curve fitting and calculation of EC50 values, the equation “[Agonist] vs. response -- Variable slope (four parameters)” was used in GraphPad Prism (version 7.00, GraphPad Software).
(In general: Reporter assays use an easily measured gene product as a stand-in for the process of interest.)

Series [3] concerns the target T3, Nurr1-RXR heterodimer (DR5) (Homo sapiens, UniProt P43354).
T3 construct: The full-length human nuclear receptor Nurr1 (pcDNA3.1-hNurr1-NE; Addgene plasmid #102363); host or cells: HEK293T
Nature of the series: Full-length Nurr1 reporter gene assay (DR5). The format is cell-based. The method, then:
Activation of full-length human Nurr1 was studied in transiently transfected HEK293T cells using the reporter plasmids pFR-Luc-NBRE[14], pFR-Luc-POMC[14] or pFR-Luc-DR5[14] each containing one copy of the respective human Nurr1 response element NBRE Nl3, NurRE, or DR5. […] After 24 h, the medium was changed to Opti-MEM without supplements, and cells were transiently transfected using Lipofectamine LTX reagent (Invitrogen) according to the manufacturer’s protocol. Five hours after transfection, cells were incubated with the test compounds in Opti-MEM supplemented with penicillin (100 U/mL), streptomycin (100 μg/mL) and 0.1% DMSO for 16 h before luciferase activity was measured using the Dual-Glo Luciferase Assay System (Promega) according to the manufacturer’s protocol on a Tecan Spark luminometer (Tecan Deutschland GmbH). Firefly luminescence was divided by Renilla luminescence and multiplied by 1000 resulting in relative light units (RLU) to normalize for transfection efficiency and cell growth. Fold activation was obtained by dividing the mean RLU of the test compound by the mean RLU of the untreated control. All samples were tested in at least three biologically independent experiments in duplicates. For dose-response curve fitting and calculation of EC50 values, the equation “[Agonist] vs. response -- Variable slope (four parameters)” was used in GraphPad Prism (version 7.00, GraphPad Software).

Series [4] deals with Nurr1-regulated TH, VMAT2 and SOD2 mRNA in astrocytes (T98G). Nature of the series: Nurr1-regulated gene expression in T98G astrocytes (qPCR). The format is cell-based, human. The conditions noted are these: vs DMSO control. (Quantitative PCR measures a nucleic acid by following its amplification.)
A further series relates to HEK293T cells. Briefly: WST-8 cytotoxicity assay, HEK293T. The format is cell-based, human. The conditions noted are these: for toxicity (WST-8): HEK293T cells, 24 h. Here is the method:
Each sample was prepared in four biologically independent repeats. After incubation for 24 h, the medium was refreshed and 10% water-soluble tetrazolinum salt (Cell Counting Kit-8, MedChemExpress) was added to assess metabolic activity. After 4 h, absorbance was measured at 450 nm using a Tecan Spark Cyto instrument (Tecan).

T3 sequence (P43354 whole entry): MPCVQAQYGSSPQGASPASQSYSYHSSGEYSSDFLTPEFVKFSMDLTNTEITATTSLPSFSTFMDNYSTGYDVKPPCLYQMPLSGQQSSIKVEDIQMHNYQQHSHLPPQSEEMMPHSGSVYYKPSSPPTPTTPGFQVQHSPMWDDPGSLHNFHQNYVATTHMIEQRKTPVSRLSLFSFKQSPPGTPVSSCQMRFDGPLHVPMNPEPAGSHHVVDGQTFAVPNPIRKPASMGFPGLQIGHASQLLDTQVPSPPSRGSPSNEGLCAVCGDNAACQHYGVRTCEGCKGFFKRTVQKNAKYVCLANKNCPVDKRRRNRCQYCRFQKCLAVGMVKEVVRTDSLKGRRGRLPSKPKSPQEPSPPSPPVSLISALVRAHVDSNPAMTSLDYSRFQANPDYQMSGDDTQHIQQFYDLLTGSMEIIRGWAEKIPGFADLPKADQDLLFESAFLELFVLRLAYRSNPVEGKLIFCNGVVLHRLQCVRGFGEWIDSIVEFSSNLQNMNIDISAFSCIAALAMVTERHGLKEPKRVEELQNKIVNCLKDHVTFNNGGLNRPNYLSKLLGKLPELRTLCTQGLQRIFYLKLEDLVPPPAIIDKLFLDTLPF
T3 sequence (P19793 whole entry partner): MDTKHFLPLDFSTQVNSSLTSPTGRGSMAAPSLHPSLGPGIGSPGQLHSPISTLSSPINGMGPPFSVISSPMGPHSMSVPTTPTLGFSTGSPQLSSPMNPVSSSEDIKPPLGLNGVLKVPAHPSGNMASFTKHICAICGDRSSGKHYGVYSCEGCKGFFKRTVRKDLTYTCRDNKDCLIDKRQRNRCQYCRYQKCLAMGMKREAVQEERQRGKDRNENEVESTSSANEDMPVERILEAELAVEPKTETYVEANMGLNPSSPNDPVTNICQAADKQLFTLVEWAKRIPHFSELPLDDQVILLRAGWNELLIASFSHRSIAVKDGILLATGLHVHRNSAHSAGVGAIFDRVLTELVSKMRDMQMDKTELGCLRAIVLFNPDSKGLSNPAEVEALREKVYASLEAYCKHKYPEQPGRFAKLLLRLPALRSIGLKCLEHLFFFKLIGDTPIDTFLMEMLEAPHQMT
T2 sequence (P43354 whole entry): as the sequence (P43354 whole entry) above

Turning to `Cc1nc2c(Cl)cccn2c1NC(=O)c1ccc(-c2ccccc2)[nH]1` [Compound 29, N-(8-Chloro-2-methylimidazo[1,2-a]pyridin-3-yl)-5-phenyl-1H-pyrrole-2-carboxamide], the highest non-toxic concentration result in series [1] (Gal4-Nurr1 hybrid reporter gene assay, HEK293T) is “inactive (10 µM^b)”. Further, the “EC50(Nurr1)” value in series [1] (Gal4-Nurr1 hybrid reporter, HEK293T, mean ± SD, n ≥ 3) is “inactive (10 µM^b); also recorded: no activation (10 µM)”. Moreover, the “fold less active than 36 as Nurr1 modulator” value in series [1] (no agonism at 10 µM vs EC50 of 36) is given as “at least 100 fold”. Besides, the “EC50(NurRE)” value in series [2] is recorded as “no activation (10 µM)”. Also, the “EC50(DR5)” value in series [3] (Nurr1-RXR heterodimer, HEK293T, without bexarotene) is listed as “no activation (10 µM)”. In series [4] (10 µM), the “SOD2 mRNA induction (mean)” value is 1.131 fold, the “TH mRNA induction (mean)” value is recorded as 1.042 fold and the “VMAT2 mRNA induction (mean)” value was determined as 0.9124 fold. The “toxicity (WST-8)” value with HEK293T cells was “inactive (10 µM)”.
Turning to `Cc1nc2c(Cl)cccn2c1NC(=O)c1ccc(-c2ccc(N(C)C)cc2)o1` [Compound 36, N-(8-Chloro-2-methylimidazo[1,2-a]pyridin-3-yl)-5-(4-(dimethylamino)phenyl)furan-2-carboxamide], the EC50 was 0.09 ± 0.005 µM in series [1] (Gal4-Nurr1 hybrid reporter, HEK293T, mean ± SD, n ≥ 3, read-out: EC50(Nurr1)); 0.094 ± 0.003 µM in series [2]; 0.032 µM in series [3] (EC50(DR5) [+0.1 µM BEX], Nurr1-RXR heterodimer, in presence of 0.1 µM bexarotene); 0.165 ± 0.004 µM in series [3] (Nurr1-RXR heterodimer, HEK293T, without bexarotene, read-out: EC50(DR5)). The “factor of potency enhancement by bexarotene (DR5)” value in series [3] (EC50 with 0.1 µM BEX vs without) was > 5. Besides, the results for the “SOD2 mRNA induction (mean)” value in series [4] (0.1 µM) and in series [4] (0.3 µM) were 1.308 fold and 1.894 fold, respectively. Besides, the “TH mRNA induction (mean)” value was 1.414 fold in series [4] (0.1 µM) and 1.603 fold in series [4] (0.3 µM). The “VMAT2 mRNA induction (mean)” value came to 1.925 fold in series [4] (0.1 µM) and 1.791 fold in series [4] (0.3 µM). In addition, the “toxicity (WST-8)” value with HEK293T cells is “no toxic effect; also recorded: non-toxic; also recorded: inactive (10 µM)”. For the same molecule, the “rel. absorbance (450 nm)” value with HEK293T cells (HEK293T, 10 µM, WST-8, vs DMSO ctrl) is 85% and 95% and 80%.
